Test results: patent US9908831B2, “Resist composition, method for forming resist pattern, polyphenolic compound for use in the composition, and alcoholic compound that can be derived therefrom” (Mitsubishi Gas Chemical Company, Inc., priority 2011, dated 2018)

Columns and labels:
Format in all cases: physicochemical
[1] = Thermal decomposition temperature by DSC; conditions: 10° C./min to 500° C., nitrogen gas stream
Experimental: (3) Thermal Decomposition Temperature
The apparatus EXSTAR6000DSC (trade name) manufactured by SII NanoTechnology Inc. was used. About 5 mg of each sample was placed in a non-sealed container made of aluminum, and the temperature was raised to 500° C. at the rate of temperature rise of 10° C./min in a nitrogen gas stream (30 mL/min). The temperature corresponding to a descending peak appeared in the baseline was defined as the thermal decomposition temperature.

[2] = Glass transition temperature by DSC; conditions: 10° C./min to 300° C., second heating after quench, nitrogen gas stream
Experimental: (4) Glass Transition Temperature
The apparatus EXSTAR6000DSC (trade name) manufactured by SII NanoTechnology Inc. was used. About 5 mg of each sample was placed in a non-sealed container made of aluminum, and the temperature was raised to 300° C. at the rate of temperature rise of 10° C./min in a nitrogen gas stream (30 mL/min). After the non-sealed container made of aluminum was quenched, again the temperature was raised to 300° C. at the rate of temperature rise of 10° C./min in a nitrogen gas stream (30 mL/min), thereby performing DSC measurement. The temperature corresponding to the middle point (where the specific heat was changed into the half) of a region in which a discontinuous portion appeared in the baseline was defined as the glass transition point.

[3] = Solubility of compound in methyl ethyl ketone (MEK); conditions: dissolution amount in MEK at 23° C., visual
Experimental: (1) Solubility of Compound in Methyl Ethyl Ketone (MEK)
(§1) The solubility of the compound in MEK was evaluated according to the following standard using the dissolution amount in MEK at 23° C. For the measurement of the dissolution amount, the compound was precisely weighed in a test tube at 23° C.; and the target solvent was added to the compound so that a predetermined concentration of the liquid to be obtained was set; a ultrasonic wave was applied to the liquid in an ultrasonic washing machine for 30 minutes; and the state of the resulting liquid was visually evaluated.
Evaluation A: 50% by weight or more
Evaluation B: 10% by weigh or more and less than 50% by weight
Evaluation C: less than 10% by weight

[4] = Solubility test of compound in safe solvent; conditions: 23° C., visual
Experimental: (2) Solubility Test of Compound in Safe Solvent
as §1, with “PGME and PGMEA” for “MEK”, “each solvent.” for “MEK at 23° C.”
A: 5.0% by weight≦dissolution amount
B: 3.0% by weight≦dissolution amount<5.0% by weight
C: dissolution amount<3.0% by weight

| Structure (SMILES) | thermal decomposition temperature [1] | glass transition point [2] | solubility in MEK [3] | Solubility test of compound in safe solvent PGME [4] | Solubility test of compound in safe solvent PGMEA [4] |
| --- | --- | --- | --- | --- | --- |
| Oc1cccc2c3c(ccc12)Oc1ccc2c(O)cccc2c1C3c1ccc(-c2ccccc2)cc1 [XBisN-4] | 410 °C | 152 °C | B (Evaluation B: 10% by weigh or more and less than 50% by weight) | A (A: 5.0% by weight≦dissolution amount) | A (A: 5.0% by weight≦dissolution amount) |
| Oc1ccc2ccc3c(c2c1)Oc1c(ccc2ccc(O)cc12)C3c1ccc(-c2ccccc2)cc1 [XBisN-5] | 410 °C | 152 °C | B (Evaluation B: 10% by weigh or more and less than 50% by weight) | A (A: 5.0% by weight≦dissolution amount) | A (A: 5.0% by weight≦dissolution amount) |
| Oc1cc2ccccc2c2c1Oc1c(O)cc3ccccc3c1C2c1ccc(-c2ccccc2)cc1 [XBisN-6] | 410 °C | 152 °C | B (Evaluation B: 10% by weigh or more and less than 50% by weight) | A (A: 5.0% by weight≦dissolution amount) | A (A: 5.0% by weight≦dissolution amount) |
| Oc1ccc2c3c(ccc2c1)Oc1ccc2cc(O)ccc2c1C3c1cccc2ccccc12 [XBisN-7] | 415 °C | 155 °C | B (Evaluation B: 10% by weigh or more and less than 50% by weight) | A (A: 5.0% by weight≦dissolution amount) | A (A: 5.0% by weight≦dissolution amount) |
| Oc1ccc2c3c(ccc2c1)Oc1ccc2cc(O)ccc2c1C3c1cc2ccccc2c2ccccc12 [XBisN-8] | 415 °C | 155 °C | B (Evaluation B: 10% by weigh or more and less than 50% by weight) | A (A: 5.0% by weight≦dissolution amount) | A (A: 5.0% by weight≦dissolution amount) |
| Oc1ccc2c3c(ccc2c1)Oc1ccc2cc(O)ccc2c1C3c1cc2cccc3ccc4cccc1c4c32 [XBisN-9] | 420 °C | 155 °C | B (Evaluation B: 10% by weigh or more and less than 50% by weight) | A (A: 5.0% by weight≦dissolution amount) | A (A: 5.0% by weight≦dissolution amount) |
| Oc1ccc2c3c(ccc2c1)Oc1ccc2cc(O)ccc2c1C31CCCCC1 [XBisN-10] | 400 °C | 140 °C | B (Evaluation B: 10% by weigh or more and less than 50% by weight) | A (A: 5.0% by weight≦dissolution amount) | A (A: 5.0% by weight≦dissolution amount) |
| Oc1ccc2c3c(ccc2c1)Oc1ccc2cc(O)ccc2c1C31c2ccccc2-c2ccccc21 [XBisN-11] | 450 °C | 145 °C | B (Evaluation B: 10% by weigh or more and less than 50% by weight) | A (A: 5.0% by weight≦dissolution amount) | A (A: 5.0% by weight≦dissolution amount) |
| Oc1ccc2c3c(ccc2c1)Oc1ccc2cc(O)ccc2c1C3c1ccc(C2c3c(ccc4cc(O)ccc34)Oc3ccc4cc(O)ccc4c32)cc1 [XBisN-12] | 410 °C | 152 °C | B (Evaluation B: 10% by weigh or more and less than 50% by weight) | A (A: 5.0% by weight≦dissolution amount) | A (A: 5.0% by weight≦dissolution amount) |
| Oc1ccc2c3c(ccc2c1)Oc1ccc2cc(O)ccc2c1C3c1ccc(-c2ccc(C3c4c(ccc5cc(O)ccc45)Oc4ccc5cc(O)ccc5c43)cc2)cc1 [XBisN-13] | 410 °C | 152 °C | B (Evaluation B: 10% by weigh or more and less than 50% by weight) | A (A: 5.0% by weight≦dissolution amount) | A (A: 5.0% by weight≦dissolution amount) |
| Oc1ccc2c3c(ccc2c1)Oc1ccc2cc(O)ccc2c1C3c1cc(C2c3c(ccc4cc(O)ccc34)Oc3ccc4cc(O)ccc4c32)cc(C2c3c(ccc4cc(O)ccc34)Oc3ccc4cc(O)ccc4c32)c1 [XBisN-14] | 410 °C | 152 °C | B (Evaluation B: 10% by weigh or more and less than 50% by weight) | A (A: 5.0% by weight≦dissolution amount) | A (A: 5.0% by weight≦dissolution amount) |
